In US8039512B2, “Biologically active oils” (priority 2003, dated 2011):

Key:
[1] = tested on: Secreted PGE2 from 3T3 cells; experiment: In-vitro prostaglandin PGE2 (COX pathways) EIA assay; assay type: cell-based, mouse; conditions: 50 µM
Method: This assay was performed using Cayman chemicals Prostaglandin E2 EIA Kit-Monoclonal, according to kit protocol. Each sample was assayed at three dilutions in duplicate. […] In particular the two samples produced dose dependent inhibition of secreted PGE2 from the mouse fibroblast cell line equivalent to or better than aspirin under the test conditions.

[2] = tested on: 5-lipoxygenase pathway of human neutrophils (PMN); experiment: Lipoxygenase pathways (leukotrienes and HETE) HPLC assay in isolated PMN; assay type: cell-based; conditions: for 5-HETE synthesis / Isomer 1 (all trans isomer of LTB4) synthesis / Isomer 2 (all trans isomer of LTB4) synthesis / LTB4 synthesis: human PMN, arachidonic acid + A23187
From the text: The HPLC assay readily quantifies 5-HETE, 12-HETE, LTB4, and the two all trans-isomers of LTB-4, and thus gives quantitative data on the relative activities of the enzymes in the 5-lipoxygenase of neutrophils, as well as data on the 12-lipoxygenase pathway of platelets. Thus it is an ideal system to test potential inhibitors of these pathways.
The effects of inhibitory compounds may be tested on isolated human PMN and platelets, in which the pathways are activated by treating the PMN or platelets with arachidonic acid and the calcium ionophore A23187. The addition of arachidonic acid eliminates the PLA-2 step, and provides high levels of substrate for the pathway. Furthermore, such activation is known to maximally drive the pathway to produce the greatest synthesis of all the metabolites, and thus is also the least sensitive to inhibition.
All samples were dissolved in ethanol to give stock solutions of 10 mg/mL. Two further dilutions of each stock solution were made in ethanol at 5 and 1 mg/mL, making 10 test samples in all. […]
1. Up to 100 mL of blood was taken from a normal volunteer and anticoagulated with EDTA. Two mL of 4.5% EDTA in water was mixed with each 10 mL of blood.
2. A further 2 mL of 6.0% Dextran T500 was added to each of the 12 mL mixtures in 1, and placed in a water bath at 37° C., to sediment the red blood cells.
3. Following sedimentation in 2, the supernatant was carefully laid over 5 mL of Percoll, density 1.070. This was then spun at 500 g for 35 mins.
4. All the cells (PMN and remaining RBC) below the Percoll interface were removed with a plastic pipette and diluted at least 3-fold with Ca^2+/Mg^2+-free Dulbecco's phosphate buffer, and centrifuged at 600 g for 10 mins.
5. Following 4, the supernatant was carefully aspirated, and the pellet gently mixed with 1 mL of Ca^2+/Mg^2+-free Dulbecco's phosphate buffer by aspiration/deaspiration into a 1 ml plastic disposable pipette. A further 40 mL of Ca^2+/Mg^2+-free Dulbecco's phosphate buffer was then added and mixed by inversion. The cell suspension was then centrifuged at 600 g for 10 mins. 6. Following centrifugation, the supernatant was removed and the PMN pellet lysed with 10 mL of a 0.2% cold sodium chloride solution for 20 secs, followed by the addition of 10 mL of a 1.6% cold sodium chloride solution, and centrifuged at 600 g for 10 mins. 7. Following 6, the PMN pellet was vigorously mixed with 1 mL of Hank's buffer by rapid aspiration/deaspiration into a 1 mL plastic disposable pipette, and then finally suspended in Hank's buffer at 2.4×10^6 PMN/ml (as measured using a Coulter counter), in preparation for the leukotriene assay. Activation of Leukotriene Pathway 1. 1 mL of PMN suspension (2.4×10^6 PMN/ml) was transferred to a 13 mL glass tube (chromic acid washed) and placed in a water bath at 37° C. for 5 min prewarming. 2. Following prewarming, at time zero, 10 μL of each test compound in methanol (or equivalent volumes of methanol as control) was added to quadruplicate tubes over a 20 sec period. 3. At 5 min, 5 µL of 2 mM arachidonic acid (10 μM final) was added (4 tubes/20 secs). 4. At 10 min, 5 µL of 1 mM calcium ionophore (A23187) (5 μM final) was added (4 tubes/20 secs). 5. At 15 min the reaction was terminated by the addition of 100 μL 100 mM citric acid. This lowers the pH of the aqueous phase to less than 3, which is necessary for the extraction of the leukotrienes into the organic phase. 6. The pH of several samples was checked to ensure pH<3.0. (This is important). 7. 40 ng Prostaglandin B2 and 166 ng 15-HETE were added to each tube as the internal standard for LTB4 and 5-HETE respectively, and samples were mixed. 8. For Standard Curves LTB4 [1 ng/μl] (for a standard curve in the range 0-50 ng) and 5-HETE [5 ng/μL] (standard curve range 0-250 ng) were added to tubes containing 1 mL PMN, 100 μL of 100 mM citric acid and 40 ng PGB2 and 166 ng 15-HETE. 9. All tubes were vortexed. 10. […]

CC(=O)Oc1ccccc1C(=O)O [Aspirin]
% Control (secreted PGE2) ([1]; A23187): 72.6 % Control | % Control (secreted PGE2) ([1]; A23187, listed as aspirin): around 72.6 % Control

CCC(C)CCCCCCCCCCC(=O)O (centres unmarked) [Sample 12-MTA, 12-methyl tetradecanoic acid]
5-HETE synthesis ([2]; 2 μg/mL): 55 ± 9 percentage of the methanol control | Isomer 1 (all trans isomer of LTB4) synthesis ([2]; 2 μg/mL): 73 ± 13 percentage of the methanol control | Isomer 2 (all trans isomer of LTB4) synthesis ([2]; 2 μg/mL): 60 ± 17 percentage of the methanol control | LTB4 synthesis ([2]; 2 μg/mL): 84 ± 5 percentage of the methanol control | 5-HETE synthesis ([2]; 5 μg/mL): 65 ± 3 percentage of the methanol control | Isomer 1 (all trans isomer of LTB4) synthesis ([2]; 5 μg/mL): 101 ± 12 percentage of the methanol control | Isomer 2 (all trans isomer of LTB4) synthesis ([2]; 5 μg/mL): 97 ± 9 percentage of the methanol control | LTB4 synthesis ([2]; 5 μg/mL): 101 ± 12 percentage of the methanol control | 5-HETE synthesis ([2]; 10 μg/mL): 46 ± 11 percentage of the methanol control | Isomer 1 (all trans isomer of LTB4) synthesis ([2]; 10 μg/mL): 59 ± 14 percentage of the methanol control | Isomer 2 (all trans isomer of LTB4) synthesis ([2]; 10 μg/mL): 68 ± 14 percentage of the methanol control | LTB4 synthesis ([2]; 10 μg/mL): 70 ± 17 percentage of the methanol control | 5-HETE synthesis ([2]; 20 μg/mL): 2 ± 4 percentage of the methanol control | Isomer 1 (all trans isomer of LTB4) synthesis ([2]; 20 μg/mL): 0 percentage of the methanol control | Isomer 2 (all trans isomer of LTB4) synthesis ([2]; 20 μg/mL): 0 percentage of the methanol control | LTB4 synthesis ([2]; 20 μg/mL): 0 percentage of the methanol control | 5-HETE synthesis ([2]; 50 μg/mL): 0 percentage of the methanol control | Isomer 1 (all trans isomer of LTB4) synthesis ([2]; 50 μg/mL): 0 percentage of the methanol control | Isomer 2 (all trans isomer of LTB4) synthesis ([2]; 50 μg/mL): 0 percentage of the methanol control | LTB4 synthesis ([2]; 50 μg/mL): 0 percentage of the methanol control | Inhibition of the 5-LOX pathway ([2]; as low as 20 μg/mL): 100%
